The text below walks through data of PMC6686047, “Efficient Inhibition of Human Papillomavirus Infection by L2 Minor Capsid-Derived Lipopeptide” (mBio, 2019).

Data set [1] deals with HPV-GFP (HPV16 pseudovirus carrying GFP). The data set is classed as cell-based. Conditions: HeLa cells; ∼500 nM lipopeptide during inoculation; GFP at 36 hpi.
For data set [2], the system named is HPV-Lucia (HPV16 pseudovirus carrying Lucia). The conditions noted are these: for Relative anti-HPV activity: CHO-K1 cells, HPV-Lucia, Lucia activity at 36 hpi, potency compared with WT peptide (13-48, 100%) used at four concentrations; for IC50: 4 h.
Another data set has as its system HeLa cells. Put plainly: L2N-FITC peptide binding and uptake assay. The conditions noted are these: 500 nM FITC-m13-46st for indicated times, three PBS washes, fluorescence imaging. The data set is classed as cell-based, homo sapiens. The protocol: (§1) FIG 5 The L2N lipopeptide blocks HPV entry without affecting HPV capsid priming and internalization. (A) Cell binding and uptake of L2N lipopeptide. HeLa cells were incubated with 500 nM FITC-m13-46st peptide for indicated times. Images were captured after three PBS washes. Bar, 25 μm. (B) L2N lipopeptide inhibits HPV-GFP entry. HeLa cells were treated with 500 nM L2N lipopeptide (13-46st) before (pre), during (co), or after (post) HPV-GFP inoculation. Mock, no peptide treatment. GFP intensity was analyzed at 36 hpi. Bar, 200 μm. (C) Peptide addition/withdrawal assays were performed as indicated in the schematic diagram (top). CHO-K1 cells were incubated with HPV-Lucia at 4°C for 2 h. The 13-46st lipopeptide (500 nM) was subsequently added or withdrawn from the medium 1, 2, 4, 8, and 16 h after viral attachment. Lucia activity was analyzed at 40 hpi. (D) CHO-K1 cells were infected with HPV-L2-PSTCD-3×FLAG (MOI of 50) and treated with the indicated chemicals: 500 nM dRVRK, 500 nM L2N lipopeptide 13-46st (L2N), 100 nM BafA1, and 1 μM γ-secretase inhibitor XXI. L2 immunoblotting was performed with anti-FLAG antibody at 16 hpi. […] Intracellular L1 and L2 levels were determined by immunoblotting with MD2H11 and JWW-1, respectively. […] HPV L2 JWW-1 epitope exposure was analyzed by immunostaining with JWW-1 antibody (in red). […]

The subject of a further data set is furin cleavage of HPV L2. Put plainly: Furin cleavage of PSTCD-fused L2 (immunoblot). The conditions noted are these: CHO-K1 cells, HPV-L2-PSTCD-3×FLAG MOI of 50; 500 nM dRVRK, 500 nM 13-46st, 100 nM BafA1, 1 μM γ-secretase inhibitor XXI; anti-FLAG immunoblot. In kind it is cell-based, HPV16. The protocol:
as §1, with “The 13-46st lipopeptide (500 nM) was subsequently added or withdrawn from the medium 1, 2, 4, 8, and 16 h after viral attachment.” left out, “40” for “40 hpi. (D) CHO-K1 cells were infected with HPV-L2-PSTCD-3×FLAG (MOI of 50) and treated with the indicated chemicals: 500 nM dRVRK, 500 nM L2N lipopeptide 13-46st (L2N), 100 nM BafA1, and 1 μM γ-secretase inhibitor XXI. L2 immunoblotting was performed with anti-FLAG antibody at 16”
To further dissect how the L2N lipopeptide interfered with HPV entry, we tested whether furin cleavage, internalization, and JWW-1 epitope exposure of HPV were affected by peptide treatment in either CHO-K1 cells or HeLa cells. Furin cleavage was analyzed by infection of HPV PsV carrying Propionibacterium shermanii transcarboxylase domain (PSTCD)-fused L2. […] Internalization of viral particles was analyzed by detecting intracellular L1 and L2 at 2 h postinfection.
In general terms: Immunoblotting shows a protein as a band on a membrane.

Bridge positions count the residues as written; N and C are the ends. Ends that are not written are not given here. Peptide text beside a SMILES is read from it. * marks the point of attachment. FITC = O=C1OC2(c3ccc(O)cc3Oc3cc(O)ccc32)c2ccc(NC(=S)*)cc21; Stearoyl = CCCCCCCCCCCCCCCCCC(=O)*

Turning to “13-48CVIM: HPV16 L2N13-48 lipopeptide produced in 293T cells, CVIM motif isoprenylated (geranylgeranylation), released by furin”, the “inhibition of HPV-GFP infection by L2N-CVIM lipopeptides (in words)” value (“inhibition of HPV-GFP infection” for short) in data set [1] is given as “suppressed HPV-GFP infection”. Besides, the “Relative anti-HPV activity” value in data set [2] is listed as 100%.

Turning to “13-55CVIM: HPV16 L2N13-55 lipopeptide produced in 293T cells, CVIM motif isoprenylated, released by furin”, the “inhibition of HPV-GFP infection” value in data set [1] is given as “suppressed HPV-GFP infection”. In data set [2], the “Relative anti-HPV activity” value was 10%.

`CCCCCCCCCCCCCCCCCC(=O)NCCCC[C@H](NC(=O)[C@H](CO)NC(=O)CNC(=O)[C@H](Cc1ccc(O)cc1)NC(=O)[C@H](CCC(N)=O)NC(=O)[C@H](CC(C)C)NC(=O)[C@@H](NC(=O)[C@H](CCC(N)=O)NC(=O)[C@H](CCCCN)NC(=O)[C@H](C)NC(=O)[C@@H](NC(=O)[C@@H](NC(=O)[C@H](CCCCN)NC(=O)CNC(=O)[C@H](CCC(=O)O)NC(=O)[C@@H](NC(=O)[C@H](CCCCN)NC(=O)[C@@H]1CCCN1C(=O)[C@@H](NC(=O)[C@@H](NC(=O)[C@H](CC(=O)O)NC(=O)[C@@H]1CCCN1C(=O)[C@@H]1CCCN1C(=O)[C@@H]1CSSC[C@H](NC(=O)[C@@H](NC(=O)[C@H](CCCCN)NC(=O)[C@H](Cc2ccc(O)cc2)NC(=O)[C@H](CC(C)C)NC(=O)[C@H](CCC(N)=O)NC(=O)[C@@H](NC(=O)[C@H](C)NC(=O)[C@H](CO)NC(=O)[C@H](C)N)[C@@H](C)O)[C@@H](C)O)C(=O)N[C@@H](CCCCN)C(=O)N[C@@H](CCC(N)=O)C(=O)N[C@@H](C)C(=O)NCC(=O)N[C@@H]([C@@H](C)O)C(=O)N1)[C@@H](C)CC)[C@@H](C)CC)C(C)C)[C@@H](C)O)[C@@H](C)CC)[C@@H](C)CC)C(=O)O` [13-50st-D43K] (H-ASATQLYKTCKQAGTCPPDIIPKVEGKTIAKQILQYGSK(Stearoyl)-OH; disulfide 10-16): the IC50 in data set [2] is 200 nM. In data set [2], `CCCCCCCCCCCCCCCCCC(=O)NCCCC[C@H](NC(=O)[C@H](CO)NC(=O)CNC(=O)[C@H](Cc1ccc(O)cc1)NC(=O)[C@H](CCC(N)=O)NC(=O)[C@H](CC(C)C)NC(=O)[C@@H](NC(=O)[C@H](CCC(N)=O)NC(=O)[C@H](CC(=O)O)NC(=O)[C@H](C)NC(=O)[C@@H](NC(=O)[C@@H](NC(=O)[C@H](CCCCN)NC(=O)CNC(=O)[C@H](CCC(=O)O)NC(=O)[C@@H](NC(=O)[C@H](CCCCN)NC(=O)[C@@H]1CCCN1C(=O)[C@@H](NC(=O)[C@@H](NC(=O)[C@H](CC(=O)O)NC(=O)[C@@H]1CCCN1C(=O)[C@@H]1CCCN1C(=O)[C@@H]1CSSC[C@H](NC(=O)[C@@H](NC(=O)[C@H](CCCCN)NC(=O)[C@H](Cc2ccc(O)cc2)NC(=O)[C@H](CC(C)C)NC(=O)[C@H](CCC(N)=O)NC(=O)[C@@H](NC(=O)[C@H](C)NC(=O)[C@H](CO)NC(=O)[C@H](C)N)[C@@H](C)O)[C@@H](C)O)C(=O)N[C@@H](CCCCN)C(=O)N[C@@H](CCC(N)=O)C(=O)N[C@@H](C)C(=O)NCC(=O)N[C@@H]([C@@H](C)O)C(=O)N1)[C@@H](C)CC)[C@@H](C)CC)C(C)C)[C@@H](C)O)[C@@H](C)CC)[C@@H](C)CC)C(=O)O` [13-50st] (H-ASATQLYKTCKQAGTCPPDIIPKVEGKTIADQILQYGSK(Stearoyl)-OH; disulfide 10-16) yielded an IC50 of 30 nM. As for `CCCCCCCCCCCCCCCCCC(=O)NCCCC[C@H](NC(=O)[C@H](CCCCNC(=S)Nc1ccc2c(c1)C(=O)OC21c2ccc(O)cc2Oc2cc(O)ccc21)NC(=O)[C@H](CO)NC(=O)CNC(=O)[C@H](CC(C)C)NC(=O)[C@@H](NC(=O)[C@H](CCCNC(=N)N)NC(=O)[C@H](CC(=O)O)NC(=O)[C@H](C)NC(=O)[C@H](CC(C)C)NC(=O)[C@@H](NC(=O)[C@H](CC(N)=O)NC(=O)CNC(=O)[C@H](CCC(=O)O)NC(=O)[C@@H](NC(=O)[C@H](CCCCN)NC(=O)[C@H](CC(N)=O)NC(=O)[C@@H](NC(=O)[C@@H](NC(=O)[C@H](CC(=O)O)NC(=O)[C@@H]1CCCN1C(=O)[C@@H]1CCCN1C(=O)[C@@H]1CSSC[C@H](NC(=O)[C@H](CCC(N)=O)NC(=O)[C@H](CCCNC(=N)N)NC(=O)[C@H](Cc2ccc(O)cc2)NC(=O)[C@H](CC(C)C)NC(=O)[C@H](CC(N)=O)NC(=O)[C@H](CO)NC(=O)[C@H](C)NC(=O)[C@H](CO)NC(=O)[C@@H](N)CC(=O)O)C(=O)N[C@@H](CCC(N)=O)C(=O)N[C@@H](C(C)C)C(=O)N[C@@H]([C@@H](C)O)C(=O)NCC(=O)N[C@@H](CC(N)=O)C(=O)N1)C(C)C)C(C)C)C(C)C)[C@@H](C)O)[C@@H](C)CC)C(=O)O` [FITC-m13-46st] (H-DSASNLYRQCQVTGNCPPDVVNKVEGNTLADRILGSK(FITC)K(Stearoyl)-OH; disulfide 10-16), the “cell binding and uptake of the lipopeptide” value in the data set with HeLa cells is “readily detected on HeLa cells at 15 min postincubation, and significant internalization was observed at 30 min postincubation and became apparent at 2 h postincubation”. Besides, the IC50 in data set [2] was less than 10 nM. For `CCCCCCCCCC(=O)N[C@@H](CCCN=C(N)N)C(=O)N[C@H](C(=O)N[C@@H](CCCCN)C(=O)N[C@@H](CCCN=C(N)N)C(=O)CCl)C(C)C` [dRVRK] (HELM PEPTIDE1{[CCCCCCCCCC(=O)[*:2]].R.V.K.R.[ClC[*:1]]}$$$$V2.0), in the data set on furin cleavage of HPV L2, the “furin cleavage of L2” value was “furin cleavage was inhibited”.

For the molecule “ASATQLYKTCKQAGTCPPDIIPKVEGKTIADQILQYGSMGVFF (disulfide 10-16) [13-55-no st]”, in data set [2], the IC50 is greater than 1000 nM. “ASATQLYKTCKQAGTCPPDIIPKVEGKTIADQILQYGSMGVFFK(Stearoyl) (disulfide 10-16) [13-55st]” registered an IC50 in data set [2] of 100 nM. With “SVIM: L2N13-48 peptide with cysteine-to-serine mutation in the CVIM motif, negative control”, in data set [1], the “inhibition of HPV-GFP infection” value is on record as “completely abolished their ability to inhibit HPV-GFP infection”. Further, the “Relative anti-HPV activity” value in data set [2] is given as 0%. Regarding “pZeo5-tSA-Furin-13-44GT-CVIM: HPV16 L2N13-48 lipopeptide with deletion of ILQY”, the “Relative anti-HPV activity” value in data set [2] is reported as less than 0.8%. On to “pZeo5-tSA-Furin-13-46-CVIM: HPV16 L2N13-46 lipopeptide with deletion of QYGT”, for which, in data set [2], the “Relative anti-HPV activity” value is recorded as 5%. Consider “pZeo5-tSA-Furin-13-46GT-CVIM: HPV16 L2N lipopeptide with L2N13-46”, for which the “Relative anti-HPV activity” value in data set [2] worked out at 200%. Regarding “pZeo5-tSA-Furin-13-48GT-CVIM-D31K: HPV16 L2N13-48 lipopeptide with D31K”, the “Relative anti-HPV activity” value in data set [2] is on record as 20%. “pZeo5-tSA-Furin-13-48GT-CVIM-QQKK: HPV16 L2N13-48 lipopeptide with double Q44K and Q47K”: the “Relative anti-HPV activity” value in data set [2] is 150%.

With “pZeo5-tSA-Furin-13-48GT-CVIM-d42: HPV16 L2N13-48 lipopeptide with deletion of A42 (ASATQLYKTCKQAGTCPPDIIPKVEGKTIEQILQY; not fully specified (C-terminus); cysteine pairing not given here; also: CVIM isoprenylation motif lipopeptide; UniProt P03107 13-48, looked up, variant A42*)”, the “Relative anti-HPV activity” value in data set [2] is given as less than 1%.

The IC50 is the concentration needed to halve the response being measured.
